Legend:
human GLP-1R [1] = molecular target: T1, human GLP-1R (Homo sapiens, UniProt P43220); experiment: cAMP assay in HEK293-SNAP-GLP-1R cells (HTRF); format: cell-based; conditions: 30-min stimulation, n = 4, compared to native GLP-1(7-36)NH2
Procedure: HEK293 cells stably expressing human GLP‐1R or human GIPR, each self‐labelling protein tag (SNAP)‐tagged at their N‐termini (Cisbio), were cultured in Dulbecco's Modified Eagle's Medium (DMEM) medium (Gibco), 10% fetal bovine serum (FBS) and 1% penicillin/streptomycin.
HEK293‐SNAP‐GLP‐1R, HEK293‐SNAP‐GIPR or GLP‐1R‐β‐arrestin 2 cells were seeded overnight in 12‐well plates. On the day of the assay, cells were resuspended and dispensed into white, 96‐well plates containing the indicated concentration of agonist prepared in serum‐free medium containing 0.1% bovine serum albumin (BSA). After a 30‐min stimulation, cAMP detection reagents (cAMP dynamic kit, Cisbio) were added, and the plate was read 60 min later using an HTRF‐compatible plate reader. Data were analysed using three‐parameter logistic fitting (GraphPad Prism 9.0) and normalised to the maximal fitted response of the reference ligand (GLP‐1 or semaglutide) for presentation purposes.

human GLP-1R [2] = molecular target: T1, human GLP-1R; experiment: GLP-1R binding kinetics, TR-FRET competitive kinetics with exendin(9-39)-FITC; conditions: calculated from K on and K off; HISHS-2001 versus tirzepatide
Procedure: HEK293‐SNAP‐GLP‐1R cells were seeded overnight in 12‐well plates. On the day of the assay, cells were labelled with 40 nM Lumi4‐Tb (Cisbio) in complete medium for 30 min. After washing, labelled cells were preincubated for 20 min in Hanks' Balanced Salt Solution (HBSS) supplemented with 0.1% BSA and a metabolic inhibitor cocktail (10 mM NaN3, 20 mM 2‐deoxyglucose) to inhibit GLP‐1R endocytosis that would otherwise influence binding assays. Ligand binding was then detected in real time using time‐resolved Förster resonance energy transfer (TR‐FRET) using a Flexstation 3 plate reader (Molecular Devices). […] Plate reader settings included 340 nm λexcitation, 520 nm (cut‐off 495 nm) and 620 nm (cut‐off 570 nm) λemission, 400 μs delay and 1500 μs integration time. Association and dissociation rate constants were calculated using the kinetics of competitive binding algorithm in GraphPad Prism 9.0.

in vivo = experiment: in vivo; set-up: species or system mouse; conditions: sc; for Tmax / half-life: male, CD-1, mouse; for stability in the circulation: mouse
Procedure: Ninety animals were procured from LAR. Animals were acclimatized for 1 day. On Day 0, each animal was weighed. […] Animals were injected subcutaneously at 1 mg/kg for the corresponding agonist (dose volume: 10 mL/kg) using 26½ gauge needles. At 1, 2, 4, 8, 12, 24, 48, 72, and 96 h, ~500 μL of blood was collected by retro‐orbital plexus puncture using capillary micro‐centrifuge tubes containing anticoagulant (15 μL 10% K2 EDTA). Plasma was separated from blood by centrifugation at ~3300 rpm for 10 min at 4°C. HISHS‐2001 concentrations were estimated using liquid chromatography with tandem mass spectrometry.

T1 sequence (P43220 24-463): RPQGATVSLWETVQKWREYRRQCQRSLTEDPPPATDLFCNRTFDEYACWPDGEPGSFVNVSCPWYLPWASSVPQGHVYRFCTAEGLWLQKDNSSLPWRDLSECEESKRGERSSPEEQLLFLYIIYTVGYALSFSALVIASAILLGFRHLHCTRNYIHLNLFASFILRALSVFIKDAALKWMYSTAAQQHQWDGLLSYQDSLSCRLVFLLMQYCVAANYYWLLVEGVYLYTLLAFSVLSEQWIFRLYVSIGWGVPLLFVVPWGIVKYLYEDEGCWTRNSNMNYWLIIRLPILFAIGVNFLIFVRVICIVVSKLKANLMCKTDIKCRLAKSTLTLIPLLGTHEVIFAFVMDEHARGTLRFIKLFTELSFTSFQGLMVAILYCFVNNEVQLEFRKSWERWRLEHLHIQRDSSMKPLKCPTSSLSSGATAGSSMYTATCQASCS

Row | Compound | cAMP potency (pEC50) at the GLP-1R (human GLP-1R [1]) | calculated Kd at GLP-1R (human GLP-1R [2]) | Tmax (in vivo) | half-life (in vivo) | stability in the circulation (in vivo)
1 | CC[C@H](C)[C@H](NC(=O)[C@H](CC(C)C)NC(=O)[C@H](Cc1c[nH]c2ccccc12)NC(=O)[C@H](CCC(N)=O)NC(=O)[C@@H](NC(=O)[C@H](Cc1ccccc1)NC(=O)[C@H](C)NC(=O)[C@H](CCCCNC(=O)COCCOCCNC(=O)C(C)(C)NC(=O)CC[C@H](NC(=O)CCCCCCCCCCCCCCCCCCC(=O)O)C(=O)O)NC(=O)[C@H](CCC(N)=O)NC(=O)[C@H](C)NC(=O)[C@@H](NC(=O)[C@H](CCCCN)NC(=O)[C@H](CC(=O)O)NC(=O)[C@H](CC(C)C)NC(=O)C(C)(C)NC(=O)[C@@H](NC(=O)[C@H](CO)NC(=O)[C@H](Cc1ccc(O)cc1)NC(=O)[C@H](CC(=O)O)NC(=O)[C@H](CO)NC(=O)[C@@H](NC(=O)[C@H](Cc1ccccc1)NC(=O)[C@@H](NC(=O)CNC(=O)[C@H](CCC(=O)O)NC(=O)C(C)(C)NC(=O)[C@@H](N)Cc1ccc(O)cc1)[C@@H](C)O)[C@@H](C)O)[C@@H](C)CC)[C@@H](C)CC)C(C)C)C(=O)N[C@@H](C)C(=O)NCC(=O)NCC(=O)N1CCC[C@H]1C(=O)N[C@@H](CO)C(=O)N[C@@H](CO)C(=O)NCC(=O)N[C@@H](C)C(=O)N1CCC[C@H]1C(=O)N1CCC[C@H]1C(=O)N1CCC[C@H]1C(=O)N[C@@H](CO)C(N)=O [HISHS-2001] | significantly reduced potency | also lower | 8 h | 10.1 h | similar
2 | CC[C@H](C)[C@H](NC(=O)[C@H](CC(C)C)NC(=O)[C@H](Cc1c[nH]c2ccccc12)NC(=O)[C@H](CCC(N)=O)NC(=O)[C@@H](NC(=O)[C@H](Cc1ccccc1)NC(=O)[C@H](C)NC(=O)[C@H](CCCCNC(=O)COCCOCCNC(=O)COCCOCCNC(=O)CC[C@H](NC(=O)CCCCCCCCCCCCCCCCCCC(=O)O)C(=O)O)NC(=O)[C@H](CCC(N)=O)NC(=O)[C@H](C)NC(=O)[C@@H](NC(=O)[C@H](CCCCN)NC(=O)[C@H](CC(=O)O)NC(=O)[C@H](CC(C)C)NC(=O)C(C)(C)NC(=O)[C@@H](NC(=O)[C@H](CO)NC(=O)[C@H](Cc1ccc(O)cc1)NC(=O)[C@H](CC(=O)O)NC(=O)[C@H](CO)NC(=O)[C@@H](NC(=O)[C@H](Cc1ccccc1)NC(=O)[C@@H](NC(=O)CNC(=O)[C@H](CCC(=O)O)NC(=O)C(C)(C)NC(=O)[C@@H](N)Cc1ccc(O)cc1)[C@@H](C)O)[C@@H](C)O)[C@@H](C)CC)[C@@H](C)CC)C(C)C)C(=O)N[C@@H](C)C(=O)NCC(=O)NCC(=O)N1CCC[C@H]1C(=O)N[C@@H](CO)C(=O)N[C@@H](CO)C(=O)NCC(=O)N[C@@H](C)C(=O)N1CCC[C@H]1C(=O)N1CCC[C@H]1C(=O)N1CCC[C@H]1C(=O)N[C@@H](CO)C(N)=O [tirzepatide, reference compound] | – | – | 8 h | 8.78 h | similar
